Experimental data reported in patent US20090320166A1, “Synergistic Insecticide And Fungicidal Mixtures” (BAYER CROPSCIENCE AG, priority 2006, published 2009).

Assays:
[1] = tested on: Phaedon cochleariae; assay: Phaedon cochleariae larvae test (cabbage leaf dip); details: Table B1, 200 ppm, mustard beetle larvae on cabbage leaves
[2] = tested on: Myzus persicae; assay: Myzus persicae test (cabbage leaf dip); assay type: in vivo; details: 200 ppm
Source text: Solvent: 7 parts by weight of dimethylformamide

Cn1cc(C(=O)Nc2ccccc2C2CC2C2CC2)c(C(F)F)n1 (stereo not drawn) [compound (I-4)]
0%: Kill in % after 6d [1] | Kill in % after 1d ([2]; Table A1, green peach aphid on cabbage leaves, after 1 d) | Kill in % after 6d ([2]; Table A2, after 6 d)
